Consider 12 compounds from US20240308960A1 (Sumitomo Pharma Co., Ltd., priority 2021, published 2024).

The experiment has as its target T1, Human orexin receptor type 2 (Homo sapiens, UniProt O43614).
T1 sequence (O43614 1-444): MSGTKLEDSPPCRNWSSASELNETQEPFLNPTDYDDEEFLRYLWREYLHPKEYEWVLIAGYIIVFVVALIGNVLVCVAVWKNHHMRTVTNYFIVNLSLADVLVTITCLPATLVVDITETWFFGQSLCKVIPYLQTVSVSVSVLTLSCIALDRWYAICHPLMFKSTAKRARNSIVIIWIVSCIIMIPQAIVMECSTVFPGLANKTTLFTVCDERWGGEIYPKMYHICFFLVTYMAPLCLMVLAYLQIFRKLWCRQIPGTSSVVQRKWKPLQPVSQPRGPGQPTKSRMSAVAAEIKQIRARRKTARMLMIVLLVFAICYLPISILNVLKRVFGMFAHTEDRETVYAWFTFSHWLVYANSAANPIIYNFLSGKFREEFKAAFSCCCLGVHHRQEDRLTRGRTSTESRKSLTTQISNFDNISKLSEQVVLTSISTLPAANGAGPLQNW
The experiment is described as follows: Test Example 1: agonist activity for orexin receptor type 2 (aequorin luminescence, intracellular calcium mobilization). As to conditions: compound 10 μm; CHO cells transiently expressing human orexin receptor type 2 and apoaequorin; relative percentage of luminescence for the luminescence (100%) of Orexin A (100 μM).
Description: Human orexin receptor type 2 and apoaequorin were transiently expressed in CHO cells, and the agonist activity was evaluated based on intracellular calcium mobilization with ligand stimulation. The CHO cells transiently-expressed human orexin receptor type 2 and apoaequorin were seeded on a 384-well plate by 2,000 cells/well, and then incubated for 16-22 hours. After the plate was returned to room temperature, Coelenterazine hcp (final concentration: 1 μM) was added to the plate, and the plate was allowed to stand at room temperature for 2 hours. And then, Orexin A or each test compound was added to the plate, and the luminescence of the cells was measured with FDSS7000 (Hamamatsu Photonics K. K.), wherein Orexin A and each test compound were dissolved in DMSO (final concentration: 0.1%), and diluted with a buffer (Hanks, 20 mM HEPES, 0.1% BSA). The agonist activity of each test compound for orexin receptor type 2 was calculated as relative percentage of luminescence for the luminescence (100%) of Orexin A (100 μM).
Take `CC(C)N1CCN(c2cccc(Cl)c2NC(=O)N2CCC(C)(c3noc(C4(C(F)(F)F)CC4)n3)CC2)CC1` [Example 107, N-{2-chloro-6-[4-(propan-2-yl)piperazin-1-yl]phenyl}-4-methyl-4-{5-[1-(trifluoromethyl)cyclopropyl]-1,2,4-oxadiazol-3-yl}piperidine-1-carboxamide]: the “Agonist Activity (%)” value was found to be 163%. In the case of `CC(C)N1CCN(c2cccc(F)c2NC(=O)N2CCC(c3cc(C4CC4)on3)CC2)CC1` [Example 52, 4-(5-cyclopropyl-1,2-oxazol-3-yl)-N-{2-fluoro-6-[4-(propan-2-yl)piperazin-1-yl]phenyl}piperidine-1-carboxamide] it was 155%; in that of `CC1(c2noc(C3CC3)n2)CCN(C(=O)Nc2c(Cl)cccc2C2CCN(C3COC3)CC2)CC1` [Example 146, N-{2-chloro-6-[1-(oxetan-3-yl)piperidin-4-yl]phenyl}-4-(5-cyclopropyl-1,2,4-oxadiazol-3-yl)-4-methylpiperidine-1-carboxamide], 104%. Consider `CC(C)N1CCN(c2ccccc2NC(=O)N2CCC(C)(c3nc(-c4cccnc4)no3)CC2)CC1` [Example 13, 4-methyl-N-{2-[4-(propan-2-yl)piperazin-1-yl]phenyl}-4-[3-(pyridin-3-yl)-1,2,4-oxadiazol-5-yl]piperidine-1-carboxamide], for which the “Agonist Activity (%)” value was found to be 99%.

For the compound `CC(C)N1CCN(c2cccc(Cl)c2NC(=O)N2CCC(C)(c3noc(C4CCC4)n3)CC2)CC1` [Example 78, N-{2-chloro-6-[4-(propan-2-yl)piperazin-1-yl]phenyl}-4-(5-cyclobutyl-1,2,4-oxadiazol-3-yl)-4-methylpiperidine-1-carboxamide], the “Agonist Activity (%)” value is reported as 170%.

As to `Cc1ccc(C2CCN(C(=O)Nc3c(Cl)cccc3N3CCN(C(C)C)CC3)CC2)cc1` [Example 35, N-{2-chloro-6-[4-(propan-2-yl)piperazin-1-yl]phenyl}-4-(4-methylphenyl)piperidine-1-carboxamide], the “Agonist Activity (%)” value is 163%. In the case of `Cc1ccccc1C1CCN(C(=O)Nc2c(F)cccc2N2CCN(C(C)C)CC2)CC1` [Example 37, N-{2-fluoro-6-[4-(propan-2-yl)piperazin-1-yl]phenyl}-4-(2-methylphenyl)piperidine-1-carboxamide] it was 47%; in that of `CC(C)c1nc(C2(C)CCN(C(=O)Nc3c(F)cccc3N3CCN(C(C)C)CC3)CC2)no1` [Example 20, N-{2-fluoro-6-[4-(propan-2-yl)piperazin-1-yl]phenyl}-4-methyl-4-[5-(propan-2-yl)-1,2,4-oxadiazol-3-yl]piperidine-1-carboxamide], 111%; in that of `CCN1CCCN(c2ccccc2NC(=O)N2CCC(C)(c3noc(C4CC4)n3)CC2)CC1` [Example 156, 4-(5-cyclopropyl-1,2,4-oxadiazol-3-yl)-N-[2-(4-ethyl-1,4-diazepan-1-yl)phenyl]-4-methylpiperidine-1-carboxamide], 38%. Take `Cc1ccc(C2CCN(C(=O)Nc3c(N4CCN(C(C)C)CC4)cccc3C(F)(F)F)CC2)cc1` [Example 34, 4-(4-methylphenyl)-N-{2-[4-(propan-2-yl)piperazin-1-yl]-6-(trifluoromethyl)phenyl}piperidine-1-carboxamide]: the “Agonist Activity (%)” value is 161%. In the case of `CC(C)c1ccc(-c2cccc(F)c2NC(=O)N2CCC(C)(c3cc(C4CC4)on3)CC2)cn1` [Example 59, 4-(5-cyclopropyl-1,2-oxazol-3-yl)-N-{2-fluoro-6-[6-(propan-2-yl)pyridin-3-yl]phenyl}-4-methylpiperidine-1-carboxamide] it was 158%; in that of `CCCN1CCCN(c2ccccc2NC(=O)N2CCC(C)(c3noc(C4CC4)n3)CC2)CC1` [Example 157, 4-(5-cyclopropyl-1,2,4-oxadiazol-3-yl)-4-methyl-N-[2-(4-propyl-1,4-diazepan-1-yl)phenyl]piperidine-1-carboxamide], 94%.
